Test system: PEA2 ovarian cancer cell line
Test: PEA2 matrix pellet tumor on egg CAM treated with Carboplatin
Format: in vivo
Conditions: 400 μg Carboplatin intravenous injection at E13; tumor excised from E16 egg
Description: FIGS. 1A-1C are micrographs showing bright field images of a Matrigel® pellet formed comprising 3×10^5 cells of PEA2 ovarian cancer cell line. (1A) is an image of a liquid Matrigel® placed on ParafilmTM at 37° C. for 30 minutes and allowed to solidify before being placed on the CAM of an embryonic day 9 egg (E9; pellet circumference=3-5 mm). (1B) is an image of a tumor excised from an E16 egg following engraftment with a MATRIGEL® pellet, as shown in […]). […] (1C) is images of a low-passage ovarian cancer cell line derived from ascites liquid drained from a patient which was engrafted, and the resulting tumor was excised, fixed embedded, sectioned (7 μm) and stained with either (left) hematoxylin and eosin or (right) for expression of CD44 by immunohistochemistry (tumor diameter is 0.4 cm). The ovarian cancer cell line PEA2 was embedded in a matrix pellet by resuspending 3×10^5 PEA2 cells in 15 μl Matrigel®, on ice, and pipetting onto a solid surface (Parafilm) at 37° C. for 30 minutes (FIG. 1A). The Matrigel® pellet that formed was then placed on the CAM of an E9 egg, close to an underlying CAM blood vessel junction. It was not necessary to wound the CAM surface blood vessels in order to achieve a high rate of engraftment. […] Tissue sections (7 μm thick) were cut and analyzed by histology and immunohistochemistry for cell viability, proliferation and death (FIG. 1C).

With N.N.O=C([O-])C1(C(=O)[O-])CCC1.[Pt+2] [Carboplatin] the “tumor size compared to the original MATRIGEL pellet” value was “shrunk in size”.
